Patent US20090111104A1, “Method for Monitoring Hydrolytic Activity” (Fluorotechnics Pty Limited, priority 2005, published 2009)

What was measured:
BSA [1] = target: T1, BSA (Bos taurus, UniProt P02769); test: Real-time monitoring of chymotrypsin digestion of BSA using epicocconone; assay type: biochemical, bovine; conditions: bicine pH 7.8, 30° C., chymotrypsin 1:30
T1 construct: purchased Sigma-Aldrich A3059
Experimental: • 1. Chymotrypsin digestion was carried out in bicine buffer. • 2. BSA was prepared in 10 mg/mL in 50 mM bicine buffer. • 3. One hundred microliter of the BSA sample was used for chymotrypsin digestion.
• 1. The BSA sample (100 μL) was reduced by adding 5 μL of DTT stock and heating (80° C.) for 10 min. • 2. The sample was alkylated by adding the iodoacetamide (4 μL) stock at room temperature for 45 min-1 hr. • 3. The remaining iodoacetamide of the sample was neutralized by adding DTT (20 μL) and incubating room temp for 45 min-1 hr.
• 1. The reduced and denatured BSA sample from 2.2 was diluted 10-fold in 50 mM bicine buffer (25 μL+225 μL bicine buffer). BSA molar concentration was calculated to be approx. 6 μM. • 2. One hundred microliter of the sample (step 1) was prepared in duplicates and added to a microtiter plate. Controls included a bicine-based digestion buffer, a chymotrypsin sample only and an undigested BSA sample (no chymotrypsin). • 3. Epicocconone stock solution was diluted 100-fold in 50 mM bicine and 100 μL added to each well. The final concentration epicocconone was 12 μM. At this point in time, it required approximately 10 min to get appropriate FluoStar setting conditions. • 4. 2 μL of CaCl2 was added • 5. […] Fluorescence development was monitored in real time every 2 minutes up to 6 hours using FluoStar (Ex/Em=540/630−12). […]

BSA [2] = target: T1, BSA; test: SDS-PAGE validation of BSA proteolysis in the presence of different fluorophores (Example 7); assay type: biochemical, bovine; conditions: after 120 minutes
From the text: The normalised data were used for Prism analysis for obtaining the rate constants. In each case, the protein with fluorophore (open squares) is fitted to a single phase exponential decay (Y=span*exp(−kX)+plateau) and the value for k used as the fixed value for k1 in a two phase exponential decay (Y=span1*exp(−k1X)+span2*exp(−k2X)+plateau) for the protein plus papain (open circles). Through this method it was possible to measure the rate constants for hydrolysis and predict the time point for complete hydrolysis. […] It can be seen from this figure that the bands associated with the protein have disappeared after 120 minutes and that only a faint band for residual papain or trypsin can be seen. In some cases there are also some larger peptide fragments remaining after digestion that are resistant to further hydrolysis.

T1 sequence (P02769 25-607): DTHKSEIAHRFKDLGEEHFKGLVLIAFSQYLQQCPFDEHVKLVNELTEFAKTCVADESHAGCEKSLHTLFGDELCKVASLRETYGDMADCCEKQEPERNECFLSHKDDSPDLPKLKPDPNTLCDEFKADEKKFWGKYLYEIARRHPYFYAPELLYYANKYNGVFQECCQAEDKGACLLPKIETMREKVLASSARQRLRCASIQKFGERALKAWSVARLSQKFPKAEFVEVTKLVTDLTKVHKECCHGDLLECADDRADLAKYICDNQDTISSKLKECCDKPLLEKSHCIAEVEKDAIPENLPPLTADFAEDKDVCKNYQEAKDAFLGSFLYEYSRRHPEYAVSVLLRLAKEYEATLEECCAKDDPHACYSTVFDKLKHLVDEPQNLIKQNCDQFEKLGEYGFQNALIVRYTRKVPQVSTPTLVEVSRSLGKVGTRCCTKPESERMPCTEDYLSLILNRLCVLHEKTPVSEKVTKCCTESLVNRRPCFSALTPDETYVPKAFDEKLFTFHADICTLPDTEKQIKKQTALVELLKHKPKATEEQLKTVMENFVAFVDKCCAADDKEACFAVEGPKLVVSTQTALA

chymotrypsin
apparent first order rate constant (BSA [1]): 0.0447 min⁻¹

B1: papain: Non-specific cysteine protease, Sigma-Aldrich P4762 (protein, UniProt P00784 134-345, looked up)
Papain: IPEYVDWRQKGAVTPVKNQGSCGSCWAFSAVVTIEGIIKIRTGNLNEYSEQELLDCDRRSYGCNGGYPWSALQLVAQYGIHYRNTYPYEGVQRYCRSREKGPYAAKTDGVRQVQPYNEGALLYSIANQPVSVVLEAAGKDFQLYRGGIFVGPCGNKVDHAVAAVGYGPNYILIKNSWGTGWGENGYIRIKRGTGNSYGVCGLYTSSFYPVKN
digestion of BSA by SDS-PAGE (BSA [2]): complete digestion
